This is an account of results in PubChem BioAssay (NCI).

Each structure is given as a SMILES string.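 Step 1: Grow cells in 96-well plates. Step 2: Expose to compound for 48 hours at 5 concentrations. Step 3: Interpolate endpoints linearly; if unreached, use highest concentration. GI50 marks 50% less growth. TGI marks complete inhibition of growth.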

Some test systems named below: 786-0 renal; ACHN renal; HT29 colon; NCI-H226 lung; OVCAR-4 ovarian; SF-268 CNS; SK-MEL-28 melanoma; IGROV1 ovarian; LOX IMVI melanoma; SNB-75 CNS.
Common to all, as to test: growth of human tumour cells (NCI), 48 h

`O=c1[nH]c(-c2ccccc2)nc2ccc(Cl)cc12`: the TGI in the test on 786-0 renal, in the test on ACHN renal, in the test on HT29 colon, with NCI-H226 lung, in the test with OVCAR-4 ovarian and in the test with SF-268 CNS was over 100 µM each time. Besides, the TGI with SK-MEL-28 melanoma is over 100 µM.
Consider `O=C(O)CNS(=O)(=O)c1ccc(NC(=O)c2ccc(F)cc2)cc1`, for which the TGI in the test on 786-0 renal, in the test on ACHN renal, in the test with HT29 colon, in the test on IGROV1 ovarian, with LOX IMVI melanoma and in the test on OVCAR-4 ovarian was over 100 µM each time. The TGI with SF-268 CNS, in the test on SK-MEL-28 melanoma and in the test with SNB-75 CNS was over 100 µM in each case.
In the case of `Nc1ccc(-c2nc3ccccc3[nH]2)c(O)c1`, the GI50 in the test on 786-0 renal was 47.4 µM; in the test on ACHN renal, 24.3 µM; with HT29 colon, 41 µM; in the test with IGROV1 ovarian, over 100000 nM; in the test with LOX IMVI melanoma, 40.8 µM; with NCI-H226 lung, 35.5 µM. Further, the GI50 in the test with SF-268 CNS was 27.6 µM; in the test with SK-MEL-28 melanoma it was 53.9 µM; in the test on SNB-75 CNS it was 87200 nM. The TGI in the test on 786-0 renal is over 100 µM; in the test with ACHN renal, 82.9 µM; in the test with HT29 colon, over 100 µM; in the test on IGROV1 ovarian it was over 100 µM; with LOX IMVI melanoma it was over 100 µM; in the test with NCI-H226 lung, over 100 µM. Besides, the TGI with SF-268 CNS, with SK-MEL-28 melanoma and with SNB-75 CNS was over 100 µM each time.
For the compound `Cn1ccnc1C(c1nccn1C)C(C)(C)[N+](=O)[O-]`, the TGI in the test with 786-0 renal, with ACHN renal, in the test on LOX IMVI melanoma, in the test on OVCAR-4 ovarian, in the test on SF-268 CNS and with SK-MEL-28 melanoma was over 100 µM each time. In addition, the TGI in the test on SNB-75 CNS is over 100 µM.
As for `CCOCC(=O)N[C@H]1CCc2cc(OC)c(OC)c(OC)c2-c2ccc(SC)c(=O)cc21`, the TGI is over 88 µM in the test on 786-0 renal; over 35.7 µM in the test with ACHN renal; over 100 µM in the test with IGROV1 ovarian; 69 µM in the test with LOX IMVI melanoma; 0.398 µM in the test on NCI-H226 lung; over 100 µM in the test with OVCAR-4 ovarian. Moreover, the TGI is over 90.9 µM in the test with SF-268 CNS, over 100 µM with SK-MEL-28 melanoma and 5.11 µM with SNB-75 CNS.
With `C=CCC12CCC(=O)C=C1CCC1(C2)OCCO1` (stereo not drawn), the TGI in the test with 786-0 renal, with ACHN renal, in the test with IGROV1 ovarian, with NCI-H226 lung, in the test on OVCAR-4 ovarian and with SF-268 CNS was over 100 µM in each case. Besides, the TGI in the test on SK-MEL-28 melanoma and in the test on SNB-75 CNS was over 100 µM each time.
Regarding `Nc1ccc(N=Nc2ccccc2)c(N)n1`, the GI50 in the test on 786-0 renal was 20.8 µM; in the test with ACHN renal, 37.2 µM; in the test with HT29 colon it was 34.5 µM; in the test on IGROV1 ovarian it was 23700 nM; in the test on LOX IMVI melanoma it was 29 µM; in the test with NCI-H226 lung, 62.6 µM. Further, the GI50 with SF-268 CNS was 16.8 µM. The TGI in the test with 786-0 renal is 44.4 µM; in the test with ACHN renal it was over 100 µM; in the test with HT29 colon, over 100 µM; in the test with IGROV1 ovarian, 77.5 µM; in the test on LOX IMVI melanoma, over 100 µM; in the test on NCI-H226 lung, over 100 µM. The same compound had a TGI in the test with SF-268 CNS of 72.9 µM.
In the case of `COc1ccc(-c2nsc3c2NC(=O)CC3c2ccc3c(c2)OCO3)cc1` (stereo not drawn), the GI50 is 3.24 µM with 786-0 renal; 3.14 µM in the test with ACHN renal; 0.414 µM with HT29 colon; 2610 nM in the test with IGROV1 ovarian; 7.28 µM in the test on NCI-H226 lung; 6.03 µM in the test on OVCAR-4 ovarian. The GI50 was 6.44 µM with SF-268 CNS, 5.28 µM in the test with SK-MEL-28 melanoma and 1490 nM in the test with SNB-75 CNS. The TGI with 786-0 renal was over 100 µM; in the test with ACHN renal, over 100 µM; in the test with HT29 colon, 11.3 µM; in the test with IGROV1 ovarian, over 100 µM; in the test with NCI-H226 lung, over 100 µM; with OVCAR-4 ovarian, over 100 µM. Further, the TGI was over 100 µM in the test on SF-268 CNS, over 100 µM with SK-MEL-28 melanoma and 9.97 µM in the test with SNB-75 CNS.
As for `CCCCCCCCCCCCCC[P+](CCCCCC)(CCCCCC)CCCCCC`, the GI50 in the test with 786-0 renal was 0.253 µM; in the test on ACHN renal, 0.26 µM; in the test on HT29 colon, 0.0527 µM; with IGROV1 ovarian, 70.5 nM; with LOX IMVI melanoma, 0.0583 µM; in the test on OVCAR-4 ovarian, 0.126 µM. The values for the GI50 with SK-MEL-28 melanoma and in the test with SNB-75 CNS were 0.101 µM and 125 nM, respectively. Besides, the TGI with 786-0 renal came out at 2.1 µM; with ACHN renal, 1.51 µM; in the test on HT29 colon, 3.26 µM; in the test on IGROV1 ovarian, 25.7 µM; in the test on LOX IMVI melanoma it was 0.497 µM; with SK-MEL-28 melanoma it was 1.44 µM.
Consider `CC1=C(C)CC2(SC1)C(=O)c1ccccc1C2=O`, for which the TGI in the test with 786-0 renal, with ACHN renal, in the test on HT29 colon, in the test on IGROV1 ovarian, in the test with LOX IMVI melanoma and with NCI-H226 lung was over 100 µM each time. For the same compound, the TGI with OVCAR-4 ovarian, with SF-268 CNS and in the test on SNB-75 CNS was over 100 µM in each case.
Regarding `Cc1ccc(C(=O)O/N=C2/CCCCC2CN(C)C)cc1` (stereo not drawn), the TGI with 786-0 renal, in the test on ACHN renal, in the test on HT29 colon, in the test on IGROV1 ovarian, with LOX IMVI melanoma and with NCI-H226 lung was over 100 µM in each case. In addition, the TGI with OVCAR-4 ovarian, in the test with SK-MEL-28 melanoma and with SNB-75 CNS was over 100 µM throughout.
For `O=C1CCC2CCc3cccc4oc1c2c34` (stereo not drawn), the TGI with 786-0 renal, in the test on ACHN renal, with HT29 colon, in the test on IGROV1 ovarian, in the test on LOX IMVI melanoma and in the test with OVCAR-4 ovarian was over 100 µM throughout. For the same compound, the TGI in the test on SK-MEL-28 melanoma and in the test on SNB-75 CNS was over 100 µM each time.
Consider `Oc1ccc2occ3c2c1CCC3`, for which the TGI in the test on 786-0 renal, with ACHN renal, with HT29 colon, in the test with IGROV1 ovarian, with LOX IMVI melanoma and with OVCAR-4 ovarian was over 100 µM throughout. Also, the TGI in the test with SK-MEL-28 melanoma and with SNB-75 CNS was over 100 µM throughout.
